# Measured values taken from article PMC3839116 (Bioorganic & medicinal chemistry, 2012).
# How the values were obtained:
# spASADH = molecular target: T1, spASADH (Streptococcus pneumoniae, UniProt Q8DQ00); test: ASADH enzyme kinetic assay; details: for fold increase in binding affinity: relative to M11, M9: enzyme form not stated, M14: spASADH; for ligand efficiency: enzyme form not stated
# T1 sequence (Q8DQ00 1-358): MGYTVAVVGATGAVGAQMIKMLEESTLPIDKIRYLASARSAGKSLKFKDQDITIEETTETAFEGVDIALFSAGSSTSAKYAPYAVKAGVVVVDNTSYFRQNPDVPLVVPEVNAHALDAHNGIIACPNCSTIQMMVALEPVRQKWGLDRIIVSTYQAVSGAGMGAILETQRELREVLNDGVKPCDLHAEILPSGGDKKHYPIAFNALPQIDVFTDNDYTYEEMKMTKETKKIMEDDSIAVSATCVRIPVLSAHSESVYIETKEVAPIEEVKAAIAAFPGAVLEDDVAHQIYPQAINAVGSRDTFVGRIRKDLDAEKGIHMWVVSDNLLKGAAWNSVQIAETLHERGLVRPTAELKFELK
# vcASADH [1] = molecular target: T2, vcASADH (Vibrio cholerae serotype O1, UniProt Q9KQG2); test: ASADH enzyme kinetic assay
# T2 sequence (Q9KQG2 1-370): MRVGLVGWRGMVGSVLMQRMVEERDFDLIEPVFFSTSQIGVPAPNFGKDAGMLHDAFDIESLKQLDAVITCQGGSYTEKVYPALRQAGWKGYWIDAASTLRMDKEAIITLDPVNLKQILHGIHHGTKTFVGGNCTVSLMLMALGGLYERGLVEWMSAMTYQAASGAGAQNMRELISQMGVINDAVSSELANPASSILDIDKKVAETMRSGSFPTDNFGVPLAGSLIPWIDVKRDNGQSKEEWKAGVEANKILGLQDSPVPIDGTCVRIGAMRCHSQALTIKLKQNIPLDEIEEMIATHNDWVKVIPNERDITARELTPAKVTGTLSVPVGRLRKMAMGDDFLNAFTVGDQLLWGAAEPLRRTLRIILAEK
# vcASADH [2] = molecular target: T2, vcASADH; test: More thorough kinetic analysis, inhibitor varied against substrate ASA; type: biochemical; details: against the substrate ASA
structure (smiles),measurement,setting,value
"O=C(O)c1ccc(C(=O)O)cc1 [1,4-benzenedicarboxylate, reference compound]",affinity for spASADH (in words),spASADH,no affinity
same,affinity for vcASADH (in words),vcASADH [1],no affinity
"COC(=O)c1ccc(C(=O)OC)nc1 [Compound M7m, Pyridine-2,5-dimethylcarboxylate]",Ki,vcASADH [1],> 20 mM
"O=c1[nH]c2ccc([N+](=O)[O-])cc2[nH]1 [Compound M14, 5-nitro-2-benzimidazolinone]",fold increase in binding affinity,spASADH,~10 fold
O=C1NC(=O)c2cc([N+](=O)[O-])c(Cl)cc21 [Compound M9],inhibition type,vcASADH [2],competitive inhibitors
same,ligand efficiency,spASADH,0.35 kcal/mol/heavy atom
same,fold increase in binding affinity,spASADH,~10 fold
"COC(=O)c1cc(C(=O)Nc2ccc([N+](=O)[O-])cc2)cc(C(=O)OC)c1 [Compound M17m, 5-[[(4-Nitrophenyl)amino]carbonyl]-1,3-benzenedimethylcarboxylate]",Ki,vcASADH [1],> 20 mM
O=C(O)c1cc(C(=O)O)cc(C(=O)Nc2ccc([N+](=O)[O-])cc2)c1 [Compound M17],ligand efficiency,spASADH,0.22 kcal/mol/heavy atom
"CCN1C(=O)c2ccc([N+](=O)[O-])cc2C1=O [Compound M11e, 4-Nitro-N-ethylphthalimide]",affinity for spASADH (in words),spASADH,no affinity
same,Ki,vcASADH [1],> 4 mM
same,affinity for vcASADH (in words),vcASADH [1],no affinity
"COC(=O)c1ccc([N+](=O)[O-])cn1 [Compound M6m, 5-Nitropyridine-2-methylcarboxylate]",Ki,vcASADH [1],> 20 mM
"Cn1c(=O)n(C)c2cc([N+](=O)[O-])ccc21 [Compound M14m, 4-Nitro-N,N-dimethylbenzimidazolinone]",inhibition type,vcASADH [2],competitive inhibitors
same,Ki,vcASADH [1],0.13 ± 0.02 mM
